In US20230263822A1, “MODULATION OF FACTOR 11 EXPRESSION” (Ionis Pharmaceuticals, Inc., priority 2008, published 2023):

Assays:
[1] = mouse, in vivo, sc, 50 mg/kg
[2] = Tolerability in CD1 mice: kidney function, BUN (Example 37); conditions: plasma, 50 mg/kg s.c. twice per week for 6 weeks

| Substance | ALT [1] [IU/L] | AST [1] [IU/L] | Bilirubin [1] [mg/dL] | Cholesterol [1] [mg/dL] | BUN [2] [mg/dL] |
| --- | --- | --- | --- | --- | --- |
| ISIS 416850: MOE gapmer, nucleobases 1275 to 1318 of SEQ ID NO: 1 (Table 8) (antisense TGCACAGTTTCTGGCAGGCC; MOE gapmer, wing and gap sizes not given here) | 75 | 99 | 0.21 | 142 | 24 |
| ISIS 416858: MOE gapmer, nucleobases 1275 to 1318 of SEQ ID NO: 1 (Table 8) (antisense ACGGCATTGGTGCACAGTTT; MOE gapmer, wing and gap sizes not given here) | 640 | 547 | 0.28 | 181 | 23 |
| ISIS 416864: MOE gapmer, nucleobases 1275 to 1318 of SEQ ID NO: 1 (Table 8) (antisense GGCAGCGGACGGCATTGGTG; MOE gapmer, wing and gap sizes not given here) | 36 | 67 | 0.19 | 152 | 24 |
